Assay results from US20250025443A1, “COMPOUNDS AND METHODS FOR TREATING CORONA VIRUSES” (CLEAR CREEK BIO, INC., priority 2021, published 2025).
Read-outs that look alike come from different tables or passages of the source.

Target: SARS-CoV-2 Papain-Like Protease (PLpro) (Severe acute respiratory syndrome coronavirus 2 (2019-nCoV) (SARS-CoV-2), UniProt P0DTD1)
Test: biochemical
Details: read-out: PLpro IC50
[1] = PLpro enzymatic fluorescence assay, class symbols
[2] = SARS-CoV-2 PLpro enzymatic fluorescence assay

Row | Compound | IC50 [1] | IC50 [2]
1 | CC(=O)c1ncc(-c2cc(C3(NC(=O)c4cc(OC[C@@H]5CCN5C)ccc4C)CC3)c3cccnc3c2)o1 [Compound 806, (S)-N-(1-(7-(2-Acetyloxazol-5-yl)quinolin-5-yl)cyclopropyl)-2-methyl-5-((1-methylazetidin-2-yl)methoxy)benzamide] | < 100 nM | –
2 | Cc1ccc(OCC2CCCN2C)cc1C(=O)NC1(c2cccc3ccccc23)CC1 (stereo not drawn) [Compound 283, 2-Methyl-5-((1-methylpyrrolidin-2-yl)methoxy)-N-(1-(naphthalen-1-yl)cyclopropyl)benzamide] | – | < 100 nM
3 | Cc1ccc(OCCN(C)C)cc1C(=O)NC1(c2cccc(Br)c2)CC1 [Compound 261, N-(1-(3-Bromophenyl)cyclopropyl)-5-(2-(dimethylamino)ethoxy)-2-methylbenzamide] | – | 1000 to 5000 nM
4 | Cc1ccc(OC[C@H]2C[C@H](F)CN2)cc1C(=O)NC1(c2cccc3ccccc23)CC1 (single isomer, unassigned) [Compound 442] | – | < 100 nM
5 | Cc1ccc(OC[C@@H]2CCN2C)cc1C(=O)NC1(c2cc(Br)cc3ncccc23)CC1 [Compound 563, (S)-N-(1-(7-Bromoquinolin-5-yl)cyclopropyl)-2-methyl-5-((1-methylazetidin-2-yl)methoxy)benzamide] | – | < 100 nM
6 | Cc1ccc(OC[C@@H]2CCN2)cc1C(=O)NC1(c2cc(N3CCC3)cc3ncccc23)CC1 [Compound 722, (S)—N-(1-(7-(Azetidin-1-yl)quinolin-5-yl)cyclopropyl)-5-(azetidin-2-ylmethoxy)-2-methylbenzamide] | < 100 nM | –
7 | Cc1cc2cc(CN(C)C)oc2cc1C(=O)NC1(c2cccc3ccccc23)CC1 [Compound 198, 2-((Dimethylamino)methyl)-5-methyl-N-(1-(naphthalen-1-yl)cyclopropyl)benzofuran-6-carboxamide] | – | 100 to 1000 nM
8 | COc1cc(C2(NC(=O)c3cc(OC[C@H]4C[C@H](F)CN4C)ccc3C)CC2)c2ccccc2c1 [Compound 531, 5-(((2R,4S)-4-Fluoro-1-methylpyrrolidin-2-yl)methoxy)-N-(1-(3-methoxynaphthalen-1-yl)cyclopropyl)-2-methylbenzamide] | < 100 nM | –
9 | Cc1ccc(OCC2CCN2C)cc1C(=O)NC1(c2cc(O)cc3ncccc23)CC1 (stereo not drawn) [Compound 488, N-(1-(7-Hydroxyquinolin-5-yl)cyclopropyl)-2-methyl-5-((1-methylazetidin-2-yl)methoxy)benzamide] | < 100 nM | –
10 | Cc1ccc(CC#N)cc1C(=O)NC1(c2cccc3ccccc23)CC1 [Compound 313, 5-(Cyanomethyl)-2-methyl-N-(1-(naphthalen-1-yl)cyclopropyl)benzamide] | – | 100 to 1000 nM
11 | C#Cc1cc(C2(NC(=O)c3cc(OC[C@@H]4CCN4C)ccc3C)CC2)c2cccnc2c1 [Compound 620, (S)-N-(1-(7-Ethynylquinolin-5-yl)cyclopropyl)-2-methyl-5-((1-methylazetidin-2-yl)methoxy)benzamide] | < 100 nM | –
12 | C=CCc1cc(C2(NC(=O)c3cc(OCC4CCN4C)ccc3C)CC2)c2ccccc2c1 (stereo not drawn) [Compound 503, N-(1-(3-Allylnaphthalen-1-yl)cyclopropyl)-2-methyl-5-((1-methylazetidin-2-yl)methoxy)benzamide] | < 100 nM | –
13 | Cc1cc2cc(CN)[nH]c2cc1C(=O)NCc1cccc2ccccc12 [Compound 241, 2-(Aminomethyl)-5-methyl-N-(naphthalen-1-ylmethyl)-1H-indole-6-carboxamide] | – | > 5000 nM
14 | Cc1ccc(OCC2CCN2C)cc1C(=O)NC1(c2cc(-c3ccc(F)cc3)cc3ccccc23)CC1 (stereo not drawn) [Compound 518, N-(1-(3-(4-Fluorophenyl)naphthalen-1-yl)cyclopropyl)-2-methyl-5-((1-methylazetidin-2-yl)methoxy)benzamide] | < 100 nM | –
15 | Cc1ccc(OCCN(C)C)cc1C(=O)NC1(c2cccc3occc23)CC1 [Compound 357, N-(1-(Benzofuran-4-yl)cyclopropyl)-5-(2-(dimethylamino)ethoxy)-2-methylbenzamide] | – | 100 to 1000 nM
16 | COc1ccc(OCCN(C)C)cc1C(=O)NC1(c2cccc3ccccc23)CC1 [Compound 303, 5-(2-(Dimethylamino)ethoxy)-2-methoxy-N-(1-(naphthalen-1-yl)cyclopropyl)benzamide] | – | > 5000 nM
17 | Cc1ccc(OCCN(C)C)cc1NC(=O)C1(c2cccc3ccccc23)CC1 [Compound 580, N-(5-(2-(Dimethylamino)ethoxy)-2-methylphenyl)-1-(naphthalen-1-yl)cyclopropane-1-carboxamide] | – | > 5000 nM
18 | Cc1ccc(OC[C@@H]2CCN2)cc1C(=O)NC1(c2cc(-c3ccc4ncnn4c3)cc3ncccc23)CC1 [Compound 685, (S)-N-(1-(7-([1,2,4]Triazolo[1,5-a]pyridin-6-yl)quinolin-5-yl)cyclopropyl)-5-(azetidin-2-ylmethoxy)-2-methylbenzamide] | < 100 nM | –
19 | Cc1ccc(OCC2CCN2C)cc1C(=O)NC1(c2c3ccccc3cc3ccccc23)CC1 (stereo not drawn) [Compound 507, N-(1-(Anthracen-9-yl)cyclopropyl)-2-methyl-5-((1-methylazetidin-2-yl)methoxy)benzamide] | 100 to 1000 nM | –
20 | Cc1cc2cc[nH]c2cc1C(=O)NC1(c2cccc3ccccc23)CC1 [Compound 199, 5-Methyl-N-(1-(naphthalen-1-yl)cyclopropyl)-1H-indole-6-carboxamide] | – | 100 to 1000 nM

Row | Compound | IC50 [1] | IC50 [2]
21 | CCNCCOc1ccc(C)c(C(=O)NC2(c3cccc4ccccc34)CC2)c1 [Compound 351, 5-(2-(Ethylamino)ethoxy)-2-methyl-N-(1-(naphthalen-1-yl)cyclopropyl)benzamide] | – | < 100 nM
22 | COCc1cc2cc(C)c(C(=O)NC3(c4cccc5ccccc45)CC3)cc2[nH]1 [Compound 240, 2-(Methoxymethyl)-5-methyl-N-(1-(naphthalen-1-yl)cyclopropyl)-1H-indole-6-carboxamide] | – | 100 to 1000 nM
23 | COc1cc(C2(NC(=O)c3cc(OC[C@@H]4CC[C@@H]5CN(C(=O)OC(C)(C)C)CCN54)ccc3C)CC2)c2cccnc2c1 [Compound 775] | < 100 nM | –
24 | Cc1ccc(OC[C@@H]2CCN2C)cc1C(=O)NC1(c2cc(-c3ccco3)cc3ncccc23)CC1 (stereo in doubt) [Compound 604, N-(1-(7-(Furan-2-yl)quinolin-5-yl)cyclopropyl)-2-methyl-5-((1-methylazetidin-2-yl)methoxy)benzamide] | < 100 nM | –
25 | Cc1ccc(OCC(N)=O)cc1C(=O)NC1(c2cccc3ccccc23)CC1 [Compound 285, 5-(2-Amino-2-oxoethoxy)-2-methyl-N-(1-(naphthalen-1-yl)cyclopropyl)benzamide] | – | 100 to 1000 nM
26 | CCOc1cc(C2(NC(=O)c3cc(OCC4CCN4C)ccc3C)CC2)c2ccccc2c1 (stereo not drawn) [Compound 478, N-(1-(3-Ethoxynaphthalen-1-yl)cyclopropyl)-2-methyl-5-((1-methylazetidin-2-yl)methoxy)benzamide] | < 100 nM | –
27 | Cc1ccc(N)cc1CN[C@H](C)c1cccc2ccccc12 [Compound 106, (R)-4-Methyl-3-(((1-(naphthalen-1-yl)ethyl)amino)methyl) aniline] | – | > 5000 nM
28 | Cc1ccc(OC[C@H]2CCN2)cc1C(=O)NC1(c2cccc3ncccc23)CC1 [Compound 383, (R)-5-(Azetidin-2-ylmethoxy)-2-methyl-N-(1-(quinolin-5-yl)cyclopropyl)benzamide] | – | < 100 nM
29 | Cc1ccc(OCC23CCCN2CCC3)cc1C(=O)NC1(c2cccc3ccccc23)CC1 [Compound 376, 5-((Hexahydro-1H-pyrrolizin-7a-yl)methoxy)-2-methyl-N-(1-(naphthalen-1-yl)cyclopropyl)benzamide] | – | < 100 nM
30 | Cc1ccc(COC2CNC2)cc1C(=O)NC1(c2cccc3ccccc23)CC1 [Compound 435, 5-((Azetidin-3-yloxy)methyl)-2-methyl-N-(1-(naphthalen-1-yl)cyclopropyl)benzamide] | – | 100 to 1000 nM
31 | Cc1ccc(OCC2CCN2C)cc1C(=O)NC1(c2cccc3ccc(C(=O)O)cc23)CC1 (stereo not drawn) [Compound 465, 8-(1-(2-Methyl-5-((1-methylazetidin-2-yl)methoxy)benzamido)cyclopropyl)-2-naphthoic acid] | – | 1000 to 5000 nM
32 | Cc1ccc(NC2CN(C(=O)OC(C)(C)C)C2)cc1C(=O)NC(C)c1cccc2c1CCCC2 (stereo not drawn) [Compound 181] | > 5000 nM | –
33 | Cc1ccc(-c2cc(C3(NC(=O)c4cc(OCC5CCN5C)ccc4C)CC3)c3ccccc3c2)s1 (stereo not drawn) [Compound 493, 2-Methyl-5-((1-methylazetidin-2-yl)methoxy)-N-(1-(3-(5-methylthiophen-2-yl)naphthalen-1-yl)cyclopropyl)benzamide] | < 100 nM | –
34 | Cc1cc2cccnc2cc1C(=O)N[C@H](C)c1cccc2ccccc12 [Compound 150, (R)-6-Methyl-N-(1-(naphthalen-1-yl)ethyl)quinoline-7-carboxamide] | – | 1000 to 5000 nM
35 | Cc1ccc(COC2CN(C)C2)cc1C(=O)NC1(c2cccc3ccccc23)CC1 [Compound 447, 2-Methyl-5-(((1-methylazetidin-3-yl)oxy)methyl)-N-(1-(naphthalen-1-yl)cyclopropyl)benzamide] | – | 100 to 1000 nM
36 | Cc1cc2ccn(CCN)c2cc1C(=O)NC1(c2cccc3ccccc23)CC1 [Compound 203, 1-(2-Aminoethyl)-5-methyl-N-(1-(naphthalen-1-yl)cyclopropyl)-1H-indole-6-carboxamide] | – | 100 to 1000 nM
37 | CC(c1cccc2ccccc12)N1CCc2ccc(N)cc2C1 (stereo not drawn) [Compound 135, 2-(1-(Naphthalen-1-yl)ethyl)-1,2,3,4-tetrahydroisoquinolin-7-amine] | – | 1000 to 5000 nM
38 | C=C(C)c1cc(C2(NC(=O)c3cc(OC[C@@H]4CCN4C)ccc3C)CC2)c2cccnc2c1 [Compound 568, (S)-2-Methyl-5-((1-methylazetidin-2-yl)methoxy)-N-(1-(7-(prop-1-en-2-yl)quinolin-5-yl)cyclopropyl)benzamide] | – | < 100 nM
39 | Cc1cc2cn(C3CNC3)nc2cc1C(=O)NC1(c2cccc3ccccc23)CC1 [Compound 305, 2-(Azetidin-3-yl)-5-methyl-N-(1-(naphthalen-1-yl)cyclopropyl)-2H-indazole-6-carboxamide] | – | 100 to 1000 nM
